From ChEMBL document CHEMBL2380240, “Discovery, synthesis, selectivity modulation and DMPK characterization of 5-azaspiro[2.4]heptanes as potent orexin receptor antagonists” (Bioorg Med Chem Lett, 2013)

Assays:
CYP2C19 [1] = biological target: T1, CYP2C19 (Homo sapiens, UniProt P33261); experiment: Inhibition of human recombinant CYP2C19 at 3 uM by fluorimetric assay; format: ADME
CYP2C9 [2] = biological target: T2, CYP2C9 (Homo sapiens, UniProt P11712); experiment: Inhibition of human recombinant CYP2C9 at 3 uM by fluorimetric assay; format: ADME
CYP1A2 [3] = biological target: T3, CYP1A2 (Homo sapiens, UniProt P05177); experiment: Inhibition of human recombinant CYP1A2 at 3 uM by fluorimetric assay; format: ADME
T3 sequence (P05177 whole entry): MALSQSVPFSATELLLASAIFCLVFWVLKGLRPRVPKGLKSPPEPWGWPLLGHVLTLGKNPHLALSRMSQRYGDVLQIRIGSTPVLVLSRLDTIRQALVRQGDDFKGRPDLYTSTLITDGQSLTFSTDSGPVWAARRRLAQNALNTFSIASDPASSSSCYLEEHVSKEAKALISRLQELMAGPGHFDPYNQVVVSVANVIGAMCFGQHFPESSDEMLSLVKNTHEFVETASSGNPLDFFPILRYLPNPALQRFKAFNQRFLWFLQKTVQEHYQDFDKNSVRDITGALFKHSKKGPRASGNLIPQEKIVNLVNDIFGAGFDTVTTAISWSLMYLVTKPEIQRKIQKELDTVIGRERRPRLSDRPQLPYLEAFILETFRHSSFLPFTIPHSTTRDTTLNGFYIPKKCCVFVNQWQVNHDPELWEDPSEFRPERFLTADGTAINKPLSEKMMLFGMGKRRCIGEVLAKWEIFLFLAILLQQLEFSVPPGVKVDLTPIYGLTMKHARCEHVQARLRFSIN

CYP3A4 [4] = biological target: T4, CYP3A4 (Homo sapiens, UniProt P08684); experiment: Inhibition of human recombinant CYP3A4 using BFC as substrate at 3 uM by fluorimetric assay; format: ADME; details: recombinant CYP3A4, probe BFC
CYP2D6 [5] = biological target: T5, CYP2D6 (Homo sapiens, UniProt P10635); experiment: Inhibition of human recombinant CYP2D6 at 3 uM by fluorimetric assay; format: ADME
CYP3A4 [6] = biological target: T4, CYP3A4; experiment: Inhibition of human recombinant CYP3A4 using DBF as substrate at 3 uM by fluorimetric assay; format: ADME; details: recombinant CYP3A4, probe DBF
[7] = biological target: T6, Orexin/Hypocretin receptor type 1 (Homo sapiens) (UniProt O43613); experiment: Antagonist activity at human recombinant OX1 receptor expressed in CHO cells assessed as OXA-stimulated intracellular calcium mobilization by FLIPR assay; format: functional, cell-based
T6 sequence (whole entry): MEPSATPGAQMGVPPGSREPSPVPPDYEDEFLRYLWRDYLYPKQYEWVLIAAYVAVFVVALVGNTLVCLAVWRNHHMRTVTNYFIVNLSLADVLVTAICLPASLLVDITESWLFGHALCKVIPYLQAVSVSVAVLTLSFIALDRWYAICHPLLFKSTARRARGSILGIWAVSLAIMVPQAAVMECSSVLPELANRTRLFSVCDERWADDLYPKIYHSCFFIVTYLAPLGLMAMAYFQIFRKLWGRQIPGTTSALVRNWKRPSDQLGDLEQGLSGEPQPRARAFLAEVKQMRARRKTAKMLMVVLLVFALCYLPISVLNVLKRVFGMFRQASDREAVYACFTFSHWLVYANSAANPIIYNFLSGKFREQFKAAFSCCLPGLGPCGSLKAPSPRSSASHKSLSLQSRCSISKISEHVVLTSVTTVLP

[8] = biological target: T7, Orexin receptor type 2 (Homo sapiens) (UniProt O43614); experiment: Antagonist activity at human recombinant OX2 receptor expressed in HEK293 cells assessed as OXB-stimulated intracellular calcium mobilization by FLIPR assay; format: functional, cell-based
T7 sequence (whole entry): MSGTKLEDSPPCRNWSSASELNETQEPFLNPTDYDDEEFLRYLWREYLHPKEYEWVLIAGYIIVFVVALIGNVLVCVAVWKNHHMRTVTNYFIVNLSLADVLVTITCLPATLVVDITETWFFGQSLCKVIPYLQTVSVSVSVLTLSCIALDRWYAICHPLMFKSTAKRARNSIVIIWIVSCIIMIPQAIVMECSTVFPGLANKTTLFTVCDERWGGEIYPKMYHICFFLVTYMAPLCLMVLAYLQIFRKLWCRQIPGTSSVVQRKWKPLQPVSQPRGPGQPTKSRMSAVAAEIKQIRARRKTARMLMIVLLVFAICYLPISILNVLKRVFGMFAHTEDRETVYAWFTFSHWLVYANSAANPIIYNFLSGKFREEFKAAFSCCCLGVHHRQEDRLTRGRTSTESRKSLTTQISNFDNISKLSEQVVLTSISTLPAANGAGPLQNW

CYP2C9 [9] = biological target: T2, CYP2C9; experiment: Inhibition of human recombinant CYP2C9 at 1 uM by fluorimetric assay; format: ADME
CYP2C19 [10] = biological target: T1, CYP2C19; experiment: Inhibition of human recombinant CYP2C19 at 1 uM by fluorimetric assay; format: ADME
CYP1A2 [11] = biological target: T3, CYP1A2; experiment: Inhibition of human recombinant CYP1A2 at 1 uM by fluorimetric assay; format: ADME
CYP2D6 [12] = biological target: T5, CYP2D6; experiment: Inhibition of human recombinant CYP2D6 at 1 uM by fluorimetric assay; format: ADME
CYP3A4 [13] = biological target: T4, CYP3A4; experiment: Inhibition of human recombinant CYP3A4 using BFC as substrate at 1 uM by fluorimetric assay; format: ADME; details: recombinant CYP3A4, probe BFC
CYP3A4 [14] = biological target: T4, CYP3A4; experiment: Inhibition of human recombinant CYP3A4 using DBF as substrate at 1 uM by fluorimetric assay; format: ADME; details: recombinant CYP3A4, probe DBF

T1 sequence (P33261 whole entry): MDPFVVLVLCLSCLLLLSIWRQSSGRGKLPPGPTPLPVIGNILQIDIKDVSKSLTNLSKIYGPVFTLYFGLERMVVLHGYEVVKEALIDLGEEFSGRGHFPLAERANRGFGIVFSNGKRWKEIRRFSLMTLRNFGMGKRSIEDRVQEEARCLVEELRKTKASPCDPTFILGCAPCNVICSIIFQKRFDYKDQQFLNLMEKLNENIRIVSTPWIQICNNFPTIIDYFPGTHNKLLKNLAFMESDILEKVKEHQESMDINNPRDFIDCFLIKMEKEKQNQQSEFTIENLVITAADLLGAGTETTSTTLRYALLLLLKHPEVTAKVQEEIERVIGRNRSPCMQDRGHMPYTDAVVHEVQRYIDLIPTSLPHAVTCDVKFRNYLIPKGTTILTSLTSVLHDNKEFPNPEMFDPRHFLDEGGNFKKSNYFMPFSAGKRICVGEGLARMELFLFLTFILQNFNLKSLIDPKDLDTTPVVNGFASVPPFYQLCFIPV
T4 sequence (P08684 whole entry): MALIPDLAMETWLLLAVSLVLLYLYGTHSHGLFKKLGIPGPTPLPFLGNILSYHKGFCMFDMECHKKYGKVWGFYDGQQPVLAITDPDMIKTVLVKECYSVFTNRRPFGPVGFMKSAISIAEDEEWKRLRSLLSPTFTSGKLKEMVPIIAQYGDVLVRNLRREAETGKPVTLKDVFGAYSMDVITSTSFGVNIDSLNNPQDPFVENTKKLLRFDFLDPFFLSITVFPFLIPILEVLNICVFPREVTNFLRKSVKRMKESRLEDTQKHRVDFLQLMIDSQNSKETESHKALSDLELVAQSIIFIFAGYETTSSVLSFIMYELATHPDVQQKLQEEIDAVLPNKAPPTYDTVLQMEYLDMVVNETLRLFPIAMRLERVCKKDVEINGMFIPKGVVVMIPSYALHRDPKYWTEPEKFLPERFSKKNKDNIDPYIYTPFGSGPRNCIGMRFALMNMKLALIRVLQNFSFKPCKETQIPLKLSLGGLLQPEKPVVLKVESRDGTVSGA
T5 sequence (P10635 whole entry): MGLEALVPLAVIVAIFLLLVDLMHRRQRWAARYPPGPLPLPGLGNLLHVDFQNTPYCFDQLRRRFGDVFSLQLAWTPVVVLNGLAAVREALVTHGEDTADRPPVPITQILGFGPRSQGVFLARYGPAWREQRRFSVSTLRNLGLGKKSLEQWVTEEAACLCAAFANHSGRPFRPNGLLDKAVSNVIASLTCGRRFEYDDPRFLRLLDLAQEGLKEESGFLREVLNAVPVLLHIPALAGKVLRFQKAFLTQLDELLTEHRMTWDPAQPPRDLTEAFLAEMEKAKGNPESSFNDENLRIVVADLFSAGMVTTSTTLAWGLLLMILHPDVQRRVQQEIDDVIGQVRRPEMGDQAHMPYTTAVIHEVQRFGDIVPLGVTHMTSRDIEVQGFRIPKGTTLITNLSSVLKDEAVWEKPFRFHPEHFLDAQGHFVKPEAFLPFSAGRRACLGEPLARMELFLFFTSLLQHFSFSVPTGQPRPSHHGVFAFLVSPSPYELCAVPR
T2 sequence (P11712 whole entry): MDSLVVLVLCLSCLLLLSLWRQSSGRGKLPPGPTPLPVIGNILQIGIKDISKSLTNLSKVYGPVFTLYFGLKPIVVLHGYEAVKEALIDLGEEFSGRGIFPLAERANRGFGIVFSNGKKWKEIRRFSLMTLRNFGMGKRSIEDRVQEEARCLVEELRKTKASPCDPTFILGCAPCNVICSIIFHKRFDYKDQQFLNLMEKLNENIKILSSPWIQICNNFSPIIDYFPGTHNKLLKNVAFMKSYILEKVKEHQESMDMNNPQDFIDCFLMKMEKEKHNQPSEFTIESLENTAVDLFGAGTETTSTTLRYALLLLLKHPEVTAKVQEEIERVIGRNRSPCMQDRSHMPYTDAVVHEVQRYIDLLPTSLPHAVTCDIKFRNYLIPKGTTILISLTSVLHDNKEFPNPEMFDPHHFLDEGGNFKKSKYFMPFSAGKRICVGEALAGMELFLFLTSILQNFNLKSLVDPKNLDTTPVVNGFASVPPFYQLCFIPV

Compound | inhibition at 3 µM (CYP2C19 [1]) [%] | inhibition at 3 µM (CYP2C9 [2]) [%] | inhibition at 3 µM (CYP1A2 [3]) [%] | inhibition at 3 µM (CYP3A4 [4]) [%] | inhibition at 3 µM (CYP2D6 [5]) [%] | inhibition at 3 µM (CYP3A4 [6]) [%] | pKb [7] | pKb [8] | inhibition at 1 µM (CYP2C9 [9]) [%] | inhibition at 1 µM (CYP2C19 [10]) [%] | inhibition at 1 µM (CYP1A2 [11]) [%] | inhibition at 1 µM (CYP2D6 [12]) [%] | inhibition at 1 µM (CYP3A4 [13]) [%] | inhibition at 1 µM (CYP3A4 [14]) [%]
Cc1ccc(OCc2ccccc2)c(C(=O)N2CC3(CC3)C[C@H]2CNc2ccc(C(F)(F)F)cn2)n1 | < 71 | < 71 | < 71 | < 71 | < 71 | < 71 | 8.6 | 8.6 |  |  |  |  |  | 
O=C(c1nc(OC(F)(F)F)ccc1-c1ncccn1)N1CC2(CC2)C[C@H]1CNc1ccc(C(F)(F)F)cn1 | < 58 | < 58 | < 58 | < 58 | < 58 | < 58 | 7 | 6.9 |  |  |  |  |  | 
N#Cc1ccc(-c2ncccn2)c(C(=O)N2CC3(CC3)C[C@H]2CNc2ccc(C(F)(F)F)cn2)c1 | < 32 | < 32 | < 32 | < 32 | < 32 | < 32 | 8 | 8.1 |  |  |  |  |  | 
O=C(c1cc(Cl)ccc1-c1ncccn1)N1CC2(CC2)C[C@H]1CNc1cc(C(F)(F)F)ccn1 |  |  |  |  |  |  | 8.1 | 7.1 | < 57 | < 57 | < 57 | < 57 | < 57 | < 57
Cc1ccc(-n2nccn2)c(C(=O)N2CC3(CC3)C[C@H]2CNc2ccc(Cl)cn2)c1 |  |  |  |  |  |  | 8.1 | < 5 |  |  |  |  |  | 
Cc1nc(C(=O)N2CC3(CC3)C[C@H]2CNc2ccc(Cl)cn2)c(-c2ccccc2)s1 |  |  |  |  |  |  | 8.3 | 7.1 |  |  |  |  |  | 
Cc1ccc(-c2ncccn2)c(C(=O)N2CCC3(CC3)C[C@H]2CNc2ccc(Cl)cn2)c1 |  |  |  |  |  |  | 7.6 | < 5 |  |  |  |  |  | 
CS(=O)(=O)c1ccc(-c2ccccc2)c(C(=O)N2CC3(CC3)C[C@H]2CNc2ccc(C(F)(F)F)cn2)c1 | < 41 | < 41 | < 41 | < 41 | < 41 | < 41 | 6.7 | 7.1 |  |  |  |  |  | 
Cc1cc(C(F)(F)F)cc(NC[C@@H]2CC3(CC3)CN2C(=O)c2nc(C)sc2-c2ccccc2)n1 |  |  |  |  |  |  | 7.8 | 8.6 | < 69 | < 69 | < 69 | < 69 | < 69 | < 69
Cc1ccnc(NC[C@@H]2CC3(CC3)CN2C(=O)c2nc(C)sc2-c2ccccc2)n1 |  |  |  |  |  |  | 6.1 | 7 |  |  |  |  |  | 
Cc1ccc(-c2ncccn2)c(C(=O)N2CC3(CC3)C[C@H]2CNc2cc(C(F)(F)F)ccn2)c1 |  |  |  |  |  |  | 7.3 | 7.8 | < 72 | < 72 | < 72 | < 72 | < 72 | < 72
Cc1cnn(-c2ccc(C)nc2C(=O)N2CC3(CC3)C[C@H]2CNc2ccc(C(F)(F)F)cn2)c1 | < 85 | < 85 | < 85 | < 85 | < 85 | < 85 | 8.9 | 8.3 |  |  |  |  |  | 
Cc1ccc(-c2ncccn2)c(C(=O)N2CC3(CC3)C[C@H]2CNc2cc(C#N)ccn2)n1 |  |  |  |  |  |  |  |  | < 17 | < 17 | < 17 | < 17 | < 17 | < 17
